From article PMC3875237, “Fragment-based design for the development of N-domain-selective angiotensin-1-converting enzyme inhibitors” (Clinical Science (London, England : 1979), 2013)
Where two headings read alike, the source gives them in different places.

What was measured:
ACE N-domain (wild-type) [1] = target: T1, ACE N-domain (wild-type) (Homo sapiens, UniProt P12821); experiment: continuous fluorogenic (Abz)-FRK(Dnp)P-OH ACE inhibition assay, wild-type N-domain; assay type: biochemical; conditions: for Fold selectivity Ki (C/N): C-domain Ki / wild-type N-domain Ki
T1 construct: Assays were performed on wild-type N-domain, C-domain and N-domain S2 mutants; made in house; host or cells: CHO (Chinese-hamster ovary) cells
Procedure: (§1) Parent molecule RXP407 and compound 33RE were dissolved in sterile distilled water to yield stock solutions of 10 mM and subsequently serially diluted in assay buffer (50 mM Hepes, pH 6.8, 200 mM NaCl and 10 μM ZnSO4). Assays were performed on wild-type N-domain, C-domain and N-domain S2 mutants Y369F, R381E and YR/FE as described previously. Briefly, 40 nM enzyme was incubated with an equivolume amount of an appropriate concentration range of phosphinic inhibitor at ambient temperature for 5 min. Enzyme-inhibitor solutions were then divided into aliquotes in triplicate 20 μl volumes followed by the addition of 280 μl of fluorogenic substrate (Abz)-FRK(Dnp)P-OH (in assay buffer) to yield a final substrate concentration of 4 or 8 μM. Residual enzyme activity was monitored continuously at λex=320 nm and λem=420 nm using a fluorescence spectrophotometer (Cary Eclipse, Varian). Initial change of fluorescence over time was converted into arbitrary rate units and inhibitor-binding affinities determined using the Dixon method.
(§2) Assessment of inhibitor potential was carried out using a continuous fluorogenic assay (Abz)-FRK(Dnp)P assay.

[2] = target: T2, ACE N-domain mutant Y369F (Homo sapiens, UniProt P12821, Y398F); experiment: continuous fluorogenic (Abz)-FRK(Dnp)P-OH ACE inhibition assay, N-domain S2 mutant Y369F; assay type: biochemical
T2 construct: N-domain S2 mutants Y369F, R381E and YR/FE
Procedure: as §1, §2

[3] = target: T3, ACE N-domain mutant R381E (Homo sapiens, UniProt P12821, R410E); experiment: continuous fluorogenic (Abz)-FRK(Dnp)P-OH ACE inhibition assay, N-domain S2 mutant R381E; assay type: biochemical
T3 construct: N-domain S2 mutants Y369F, R381E and YR/FE
Procedure: as §1, §2

[4] = target: T4, ACE N-domain double mutant YR/FE (Homo sapiens, UniProt P12821, R410E/Y398F); experiment: continuous fluorogenic (Abz)-FRK(Dnp)P-OH ACE inhibition assay, N-domain S2 double mutant YR/FE; assay type: biochemical
T4 construct: N-domain S2 mutants Y369F, R381E and YR/FE
Procedure: as §1, §2

ACE N-domain (wild-type) [5] = target: T1, ACE N-domain (wild-type); set-up: method as in PMID 10200262; conditions: N-domain over C-domain; cited from earlier work

T2 sequence (P12821 40-624 Y398F): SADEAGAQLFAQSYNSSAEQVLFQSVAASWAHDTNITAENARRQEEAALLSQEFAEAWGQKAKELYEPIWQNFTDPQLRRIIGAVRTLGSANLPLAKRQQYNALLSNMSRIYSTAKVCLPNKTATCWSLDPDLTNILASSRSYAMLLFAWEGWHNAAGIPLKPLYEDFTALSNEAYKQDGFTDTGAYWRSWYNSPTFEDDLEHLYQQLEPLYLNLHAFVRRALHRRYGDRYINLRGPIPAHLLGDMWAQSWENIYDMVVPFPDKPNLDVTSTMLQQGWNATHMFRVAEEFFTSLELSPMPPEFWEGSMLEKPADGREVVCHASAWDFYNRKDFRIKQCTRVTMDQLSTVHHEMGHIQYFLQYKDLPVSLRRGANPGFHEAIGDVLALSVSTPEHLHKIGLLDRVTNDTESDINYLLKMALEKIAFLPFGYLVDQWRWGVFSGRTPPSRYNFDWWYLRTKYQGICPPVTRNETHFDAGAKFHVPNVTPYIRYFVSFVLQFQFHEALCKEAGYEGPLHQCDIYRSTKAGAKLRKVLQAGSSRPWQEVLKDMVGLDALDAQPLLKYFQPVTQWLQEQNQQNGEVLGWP
T3 sequence (P12821 40-624 R410E): as the sequence (P12821 40-624 Y398F) above, with F359Y, R371E counted along it
T1 sequence (P12821 40-624 limits assumed): as the sequence (P12821 40-624 Y398F) above, with F359Y counted along it
T4 sequence (P12821 40-624 Y398F/R410E): as the sequence (P12821 40-624 Y398F) above, with R371E counted along it

Ki (ACE N-domain (wild-type) [1]; wild-type N-domain, Dixon method, means±S.E.M., read-out: Ki) [nM]	SMILES	Ki (ACE N-domain (wild-type) [1]) [nM]	Fold selectivity Ki (C/N) (ACE N-domain (wild-type) [1]) [fold]	Fold selectivity Ki (C/N) ([2]; C-domain Ki / Y369F mutant Ki) [fold]	Ki ([2]; N-domain mutant Y369F, means±S.E.M.) [nM]	decrease in binding affinity compared with wild-type ([2]; Y369F vs wild-type N-domain) [fold]	Fold selectivity Ki (C/N) ([3]; C-domain Ki / R381E mutant Ki) [fold]	Ki ([3]; N-domain mutant R381E, means±S.E.M.) [nM]	decrease in binding affinity compared with wild-type ([3]; R381E vs wild-type N-domain) [fold]	Fold selectivity Ki (C/N) ([4]; C-domain Ki / YR/FE mutant Ki) [fold]	Ki ([4]; N-domain double mutant YR/FE, means±S.E.M.) [nM]	decrease in binding affinity compared with wild-type ([4]; YR/FE vs wild-type N-domain) [fold]	N-selectivity (ACE N-domain (wild-type) [5])
–	C[C@H](CP(=O)(O)[C@H](Cc1ccccc1)NC(=O)[C@@H](N)Cc1nnn[nH]1)C(=O)N[C@H](C)C(N)=O [33RE]	11.2 ± 0.74	927	26	404 ± 17.3	36	120	87 ± 6.29	8	4	2790 ± 156	250	–
21 ± 0.27	CC(=O)NC(CC(=O)O)C(=O)NC(Cc1ccccc1)P(=O)(O)CC(C)C(=O)NC(C)C(N)=O (centres unmarked) [RXP407, reference compound]	–	2896	–	–	–	–	–	–	–	–	–	approximately three orders of magnitude
